Test results from ChEMBL document CHEMBL6109109, “Fatty acid binding protein 5 inhibitors as novel anticancer agents against metastatic castration-resistant prostate cancer” (Bioorg Med Chem, 2025).

Key:
Type in all cases: functional
PC-3 [1] = assay: Synergistic anticancer activity against human PC-3 cells assessed as cell growth inhibition at […] measured after 72 hrs in presence of 1 uM of topotecan by MTT assay relative to control; details: dose 2.5 µM, read-out: GI
[2] = Synergistic anticancer activity against mouse RCaP cells assessed as cell growth inhibition at 0.625 uM measured after 72 hrs in presence of 10 uM of topotecan by MTT assay relative to control; details: read-out: GI
PC-3 [3] = assay: Synergistic anticancer activity against human PC-3 cells assessed as cell growth inhibition at 1.25 uM measured after 72 hrs in presence of 0.0001 uM of topotecan by MTT assay relative to control; details: read-out: GI
[4] = Synergistic anticancer activity against mouse RCaP cells assessed as cell growth inhibition at 0.625 uM measured after 72 hrs in presence of 0.1 uM of topotecan by MTT assay relative to control; details: read-out: GI
[5] = Cytotoxicity against mouse RCaP cells assessed as cell growth inhibition at 0.625 uM measured after 72 hrs by MTT assay relative to control; details: read-out: GI
PC-3 [6] = assay: Cytotoxicity against human PC-3 cells assessed as cell growth inhibition at 0.625 uM measured after 72 hrs by MTT assay relative to control; details: read-out: GI
[7] = Synergistic anticancer activity against mouse RCaP cells assessed as cell growth inhibition at 0.625 uM measured after 72 hrs in presence of 0.00001 uM of topotecan by MTT assay relative to control; details: read-out: GI
PC-3 [8] = assay: Synergistic anticancer activity against human PC-3 cells assessed as cell growth inhibition at 0.625 uM measured after 72 hrs in presence of 0.001 uM of topotecan by MTT assay relative to control; details: read-out: GI
[9] = Synergistic anticancer activity against mouse RCaP cells assessed as cell growth inhibition at 1.25 uM measured after 72 hrs in presence of 1 uM of topotecan by MTT assay relative to control; details: read-out: GI
PC-3 [10] = assay: Synergistic anticancer activity against human PC-3 cells assessed as cell growth inhibition at […] measured after 72 hrs in presence of 0.1 uM of topotecan by MTT assay relative to control; details: dose 2.5 µM, read-out: GI
[11] = Synergistic anticancer activity against mouse RCaP cells assessed as cell growth inhibition at 0.625 uM measured after 72 hrs in presence of 0.001 uM of topotecan by MTT assay relative to control; details: read-out: GI
PC-3 [12] = assay: Synergistic anticancer activity against human PC-3 cells assessed as cell growth inhibition at 0.625 uM measured after 72 hrs in presence of 0.0001 uM of topotecan by MTT assay relative to control; details: read-out: GI
PC-3 [13] = assay: Synergistic anticancer activity against human PC-3 cells assessed as cell growth inhibition at 1.25 uM measured after 72 hrs in presence of 0.1 uM of topotecan by MTT assay relative to control; details: read-out: GI
PC-3 [14] = assay: Synergistic anticancer activity against human PC-3 cells assessed as cell growth inhibition at 1.25 uM measured after 72 hrs in presence of 1 uM of topotecan by MTT assay relative to control; details: read-out: GI
PC-3 [15] = assay: Synergistic anticancer activity against human PC-3 cells assessed as cell growth inhibition at 1.25 uM measured after 72 hrs in presence of 0.00001 uM of topotecan by MTT assay relative to control; details: read-out: GI
[16] = Synergistic anticancer activity against mouse RCaP cells assessed as cell growth inhibition at 1.25 uM measured after 72 hrs in presence of 0.0001 uM of topotecan by MTT assay relative to control; details: read-out: GI
PC-3 [17] = assay: Synergistic anticancer activity against human PC-3 cells assessed as cell growth inhibition at 0.625 uM measured after 72 hrs in presence of 0.00001 uM of topotecan by MTT assay relative to control; details: read-out: GI
[18] = Synergistic anticancer activity against mouse RCaP cells assessed as cell growth inhibition at 1.25 uM measured after 72 hrs in presence of 0.1 uM of topotecan by MTT assay relative to control; details: read-out: GI
PC-3 [19] = assay: Synergistic anticancer activity against human PC-3 cells assessed as cell growth inhibition at 1.25 uM measured after 72 hrs in presence of 10 uM of topotecan by MTT assay relative to control; details: read-out: GI
PC-3 [20] = assay: Synergistic anticancer activity against human PC-3 cells assessed as cell growth inhibition at 0.625 uM measured after 72 hrs in presence of 1 uM of topotecan by MTT assay relative to control; details: read-out: GI
PC-3 [21] = assay: Synergistic anticancer activity against human PC-3 cells assessed as cell growth inhibition at 1.25 uM measured after 72 hrs in presence of 0.001 uM of topotecan by MTT assay relative to control; details: read-out: GI
PC-3 [22] = assay: Synergistic anticancer activity against human PC-3 cells assessed as cell growth inhibition at […] measured after 72 hrs in presence of 0.0001 uM of topotecan by MTT assay relative to control; details: dose 2.5 µM, read-out: GI
PC-3 [23] = assay: Synergistic anticancer activity against human PC-3 cells assessed as cell growth inhibition at 0.625 uM measured after 72 hrs in presence of 10 uM of topotecan by MTT assay relative to control; details: read-out: GI
PC-3 [24] = assay: Synergistic anticancer activity against human PC-3 cells assessed as cell growth inhibition at 1.25 uM measured after 72 hrs in presence of 0.01 uM of topotecan by MTT assay relative to control; details: read-out: GI
PC-3 [25] = assay: Cytotoxicity against human PC-3 cells assessed as cell growth inhibition at […] measured after 72 hrs by MTT assay relative to control; details: dose 2.5 µM, read-out: GI
[26] = Synergistic anticancer activity against mouse RCaP cells assessed as cell growth inhibition at 0.625 uM measured after 72 hrs in presence of 1 uM of topotecan by MTT assay relative to control; details: read-out: GI
PC-3 [27] = assay: Synergistic anticancer activity against human PC-3 cells assessed as cell growth inhibition at […] measured after 72 hrs in presence of 10 uM of topotecan by MTT assay relative to control; details: dose 2.5 µM, read-out: GI
PC-3 [28] = assay: Synergistic anticancer activity against human PC-3 cells assessed as cell growth inhibition at […] measured after 72 hrs in presence of 0.01 uM of topotecan by MTT assay relative to control; details: dose 2.5 µM, read-out: GI
[29] = Synergistic anticancer activity against mouse RCaP cells assessed as cell growth inhibition at 1.25 uM measured after 72 hrs in presence of 0.001 uM of topotecan by MTT assay relative to control; details: read-out: GI
[30] = Synergistic anticancer activity against mouse RCaP cells assessed as cell growth inhibition at 1.25 uM measured after 72 hrs in presence of 0.00001 uM of topotecan by MTT assay relative to control; details: read-out: GI
[31] = Synergistic anticancer activity against mouse RCaP cells assessed as cell growth inhibition at 0.625 uM measured after 72 hrs in presence of 0.0001 uM of topotecan by MTT assay relative to control; details: read-out: GI
[32] = Synergistic anticancer activity against mouse RCaP cells assessed as cell growth inhibition at 1.25 uM measured after 72 hrs in presence of 0.01 uM of topotecan by MTT assay relative to control; details: read-out: GI
PC-3 [33] = assay: Synergistic anticancer activity against human PC-3 cells assessed as cell growth inhibition at […] measured after 72 hrs in presence of 0.00001 uM of topotecan by MTT assay relative to control; details: dose 2.5 µM, read-out: GI

`COc1ccccc1[C@H]1[C@H](C(=O)O)[C@H](c2ccccc2OC)[C@H]1C(=O)Oc1cc(-c2ccc3c(c2)OCO3)ccc1-c1ccccc1` showed an inhibition of growth at […] (PC-3 [1]) of 90.5%, an inhibition of growth at 0.625 µM [2] of 99.2% and an inhibition of growth at 1.25 µM (PC-3 [3]) of 14.7%. It also gave an inhibition of growth at 0.625 µM [4] of 90.2%, an inhibition of growth at 0.625 µM [5] of -2.53% and an inhibition of growth at 0.625 µM (PC-3 [6]) of -2.63%. For the same molecule, the inhibition of growth at 0.625 µM [7] was -2.77%, the inhibition of growth at 0.625 µM (PC-3 [8]) was 16.9% and the inhibition of growth at 1.25 µM [9] was 97.6%. It also gave an inhibition of growth at […] (PC-3 [10]) of 67.4%, an inhibition of growth at 0.625 µM [11] of -4.87% and an inhibition of growth at 0.625 µM (PC-3 [12]) of 8.03%. For the same molecule, the inhibition of growth at 1.25 µM (PC-3 [13]) was 72.5%, the inhibition of growth at 1.25 µM (PC-3 [14]) was 92.3% and the inhibition of growth at 1.25 µM (PC-3 [15]) was 12.9%. It also gave an inhibition of growth at 1.25 µM [16] of -1.6%, an inhibition of growth at 0.625 µM (PC-3 [17]) of 1.6% and an inhibition of growth at 1.25 µM [18] of 90%. For the same molecule, the inhibition of growth at 1.25 µM (PC-3 [19]) was 93.4%, the inhibition of growth at 0.625 µM (PC-3 [20]) was 90.2% and the inhibition of growth at 1.25 µM (PC-3 [21]) was 33.1%. The inhibition of growth at […] (PC-3 [22]) was 25.3%, the inhibition of growth at 0.625 µM (PC-3 [23]) was 93.2% and the inhibition of growth at 1.25 µM (PC-3 [24]) was 55.8%. For the same molecule, the inhibition of growth at […] (PC-3 [25]) was 7.37%, the inhibition of growth at 0.625 µM [26] was 97.9% and the inhibition of growth at […] (PC-3 [27]) was 92.9%. The inhibition of growth at […] (PC-3 [28]) was 54.6%, the inhibition of growth at 1.25 µM [29] was 0.37% and the inhibition of growth at 1.25 µM [30] was -1.87%. It also gave an inhibition of growth at 0.625 µM [31] of -3.7%, an inhibition of growth at 1.25 µM [32] of 8.37% and an inhibition of growth at […] (PC-3 [33]) of 15.1%.
